Series [1] relates to patients with advanced solid tumors. The series is described as follows: Phase I dose escalation: toxicity, DLT and MTD. The class given is in vivo, human.
The nature of series [2]: Plasma pharmacokinetics of vorinostat and metabolites. Format: in vivo, human. The conditions noted are these: for Cmax / AUC / Cl/F / AUC (0-infinity) / T1/2 / Tmax: plasma; for AUC: Mean AUC.
The subject of series [3] is refractory NSCLC. The conditions noted are these: single agent; ref [36]; cited from earlier work.
Setting [4] is: C1D1, vorinostat 400 mg oral alone (single dose).
Where [5] appears, read: C1D2, vorinostat 400 mg oral + bortezomib.
Where [6] appears, read: C1D12, vorinostat 400 mg oral steady state, with bortezomib.

Structures are written as SMILES.

One may read the Cmax as the peak of the concentration-time curve. In general, AUC refers to the area under the concentration-time curve, a measure of exposure. In the case of `O=C(CCCCCCC(=O)Nc1ccccc1)NO` [vorinostat, suberoylanilide hydroxamic acid], in series [1] (orally daily days 1-14 of 21-day cycle, with bortezomib), the “MTD, vorinostat” value amounted to 400 mg. The “AUC and Cmax in individuals experiencing a DLT compared with no DLT” value in series [2] (all days of treatment, p < 0.05) is recorded as “significantly higher”. In series [2] (cycle 1, steady state vs single dose, p < 0.05), the “AUC and Cmax on day 12 compared with day 1” value is reported as “significantly higher”. For the same compound, the “day 1 compared with day 2 plasma concentrations (influence of bortezomib)” value in series [2] (cycle 1, vorinostat alone vs vorinostat + bortezomib) is reported as “no difference”. In addition, the Cmax in series [2] (human, oral, 400 mg, Cmax, C1D1, patients with DLT (3)) turned out to be 551 ± 174 ng/mL; in series [2] (human, oral, Cmax, C1D2, patients with DLT (3)), 675 ± 363 ng/mL; in series [2] (human, oral, Cmax, C1D12, patient with DLT (1)), 905 ng/mL; in series [2] (human, oral, Cmax, C1D12, patients with No DLT (13)), 448 ± 314 ng/mL. Moreover, the AUC in series [2] (human, oral, 400 mg, C1D1, patients with DLT (3)) is 1450 ± 277 ng·h/mL; in series [2] (human, oral, 400 mg, C1D1, patients with No DLT (16)), 999 ± 438 ng·h/mL; in series [2] (human, oral, C1D2, patients with DLT (3)), 1790 ± 436 ng·h/mL; in series [2] (human, oral, C1D2, patients with No DLT (16)), 983 ± 418 ng·h/mL; in series [2] (human, oral, C1D12, patient with DLT (1)), 2230 ng·h/mL; in series [2] (human, oral, C1D12, patients with No DLT (13)), 1410 ± 962 ng·h/mL. Also, the Cl/F in series [2] (setting [4]) is 6.4 ± 3.2 L/min; in series [2] (setting [5]) it was 11 ± 4.1 L/min; in series [2] (setting [6]) it was 13 ± 3.3 L/min. Also, the objective antitumor activity entry in series [3] was “no objective antitumor activity”.

As usually defined, the Tmax is the time at which the peak concentration occurs. `O=C(CCCCCCC(=O)Nc1ccccc1)NO[C@@H]1O[C@H](C(=O)O)[C@@H](O)[C@H](O)[C@H]1O` [Vorinostat glucuronide, vorinostat glucuronide]: in series [2] (setting [4]), the “AUC (0-infinity)” value amounted to 4843 ± 3034 ng·h/mL, the peak concentration (Cmax) stood at 1153 ± 922 ng/mL, the T1/2 stood at 1.9 ± 1.4 h and the time of peak concentration (Tmax) was 1.9 ± 1.0 h. Also, in series [2] (setting [5]), the “AUC (0-infinity)” value was determined as 5283 ± 2915 ng·h/mL, the highest concentration (Cmax) came out at 1225 ± 496 ng/mL, the T1/2 worked out at 1.6 ± 0.5 h and the Tmax came out at 3.2 ± 1.8 h. Further, in series [2] (setting [6]), the “AUC (0-infinity)” value was 4169 ± 1548 ng·h/mL, the Cmax came to 849 ± 479 ng/mL, the T1/2 turned out to be 2.0 ± 0.8 h and the time to peak (Tmax) was 2.0 ± 1.0 h.

On to `O=C(O)CCC(=O)Nc1ccccc1` [Vorinostat acid, 4-anilino-4-oxobutanoic acid], for which, in series [2] (Day 2, before vorinostat dose), the “mean baseline plasma concentration” value worked out at 130 ± 68 ng/mL. Moreover, in series [2] (setting [4]), the maximum concentration (Cmax) is reported as 815 ± 282 ng/mL and the Tmax is 2.8 ± 1.4 h.

`CC(C)C[C@H](NC(=O)[C@H](Cc1ccccc1)NC(=O)c1cnccn1)B(O)O` [bortezomib]: the “MTD, bortezomib” value in series [1] (IV days 1, 4, 8, 11 of 21-day cycle, with vorinostat 400 mg) was 1.3 mg/m^2.

The record behind these values is PMC3901262 (Investigational new drugs, 2013).
